Assay results from patent EP0326134A1, “4-Amino-2,3-disubstituted-6,7-dihydro-5H-1-pyridine derivatives, process for their preparation and medicaments containing them” (NAUCHNO-ISSLEDOVATELSKY INSTITUT TEKHNOLOGII I BEZOPASNOSTI …, priority 1988, dated 1989).

Tests used:
[1] = tested on: Wirkung von Hexenal; assay: Influence on the effect of Hexenal; assay type: in vivo, Mäusen; conditions: mice
[2] = tested on: Orientierungsaktivität; assay: Influence on orientation activity; assay type: in vivo, Mäusen; conditions: mice
Excerpt: Von Interesse ist der Einfluß der erfindungsgemäßen Verbindungen auf das ZNS und das Verhalten der Tiere. Alle Verbindungen zeigen eine Kombination von stimulierenden und sedativen Eigenschaften und bei höheren Dosen auch eine m-cholinomimetische Wirkung, wobei Tremor, Speichelfluß und Diarrhoe ausgelöst werden.

[3] = tested on: Zahl der Krämpfe; assay: Writhing test (intraperitoneal acetic acid); assay type: in vivo, Mäusen; conditions: male mice
Excerpt: Die analgetische Wirkung der erfindungsgemäßen Verbindungen wurde an männlichen Mäusen anhand des "Krampf"-Tests (Writhing-Tests) unter intraperitonealer Injizierung von Essigsäure und des Hot-plate-Tests untersucht. Im ersten Falle wurde die analgetische Wirkung der Verbindungen anhand der prozentualen Verringerung der Zahl der Krämpfe ermittelt. Beim zweiten Test wurde die Schwelle der Schmerzempfindlichkeit (Ablecken der Pfoten) bestimmt. Die stärkste analgetische Wirkung der erfindungsgemäßen Verbindungen zeigte sich beim "Krampf"-Test. Dabei übertrafen die Salze der bicyclischen Basen Amyridin, aber nicht alle erfindungsgemäßen Verbindungen waren schwächer als Morphin (s. Tabelle 4).

[4] = molecular target: T1, Acetylcholinesterase menschlicher Erythrozyten (Homo sapiens, UniProt P22303); assay: Acetylcholinesterase inhibition, spectrophotometric; assay type: biochemical; conditions: Acetylcholinesteraseinhibierung bei menschlichen Erythrozyten IK, (Mol), human erythrocyte enzyme
T1 construct: Acetylcholin-esteraseinhi-bierung bei menschlichen Erythrozyten; from tissue; host or cells: human erythrocytes
T1 sequence (P22303 other isoform, or with tags, fused parts or gaps): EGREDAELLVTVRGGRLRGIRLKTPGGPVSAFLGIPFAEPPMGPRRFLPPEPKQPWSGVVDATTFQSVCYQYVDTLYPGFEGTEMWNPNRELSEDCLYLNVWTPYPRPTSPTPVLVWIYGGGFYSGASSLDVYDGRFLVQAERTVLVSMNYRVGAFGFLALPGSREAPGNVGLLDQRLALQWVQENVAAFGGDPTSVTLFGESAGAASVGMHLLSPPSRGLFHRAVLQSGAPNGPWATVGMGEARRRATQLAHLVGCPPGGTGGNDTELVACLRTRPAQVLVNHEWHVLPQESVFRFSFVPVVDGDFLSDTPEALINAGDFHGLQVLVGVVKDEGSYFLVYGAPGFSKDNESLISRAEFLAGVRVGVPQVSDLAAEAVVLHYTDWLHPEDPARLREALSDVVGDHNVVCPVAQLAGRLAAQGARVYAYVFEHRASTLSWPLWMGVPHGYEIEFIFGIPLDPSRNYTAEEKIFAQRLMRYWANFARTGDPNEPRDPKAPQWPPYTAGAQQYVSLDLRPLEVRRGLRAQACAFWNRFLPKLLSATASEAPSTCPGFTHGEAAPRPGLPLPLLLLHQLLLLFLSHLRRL
Excerpt: Untersucht wurden die Wirkmechanismen der erfindungsgemäßen Verbindungen: • 1. Die Wirkung auf Acetylcholinesterase menschlicher Erythrozyten auf spektrofotometrischem Wege. • 2.

[5] = tested on: Calciumchlorid-Arrhythmie-Modells; assay: Calcium chloride arrhythmia model (250 mg/kg): ventricular fibrillation, survival; assay type: in vivo, Ratten; conditions: rats, calcium chloride 250 mg/kg
Excerpt: (§1) Die antiarrhythmische Wirkung der erfindungsgemäßen Verbindungen wurde in zwei Versuchsserien untersucht, und zwar an isolierten Präparaten des rechten Vorhofs von Kaninchen und mit Hilfe des Calciumchlorid-Arrhythmie-Modells an Ratten. In den Versuchen an den isolierten Präparaten des rechten Vorhofs wurden mit Hilfe von Mikroelektroden die Dauer des AP sowie der Refraktärzeit (R) und die maximale Hemmung (e) und der Parameter (e/R) untersucht, durch den die Anfälligkeit des Myokards gegenüber der Entstehung von Arrhythmien gekennzeichnet wird. In den Versuchen an Ratten wurden diesen Calciumchlorid in einer Dosierung von 250 mg/kg injiziert. Registriert wurden das Vorliegen von Kammerflimmern und die Lebensdauer der Tiere. Sämtliche erfindungsgemäßen Verbindungen üben eine mäßige antiarrhythmische Wirkung aus. Sie steigern die Refraktärzeit des Muskels und des AP um 35 bis 145 % und verringern gleichzeitig die Anfälligkeit des Myokards, ausgedrückt durch den Parameter e/R um 10 bis 80 % (s. Tabelle 4). In bezug auf diese Wirkung waren die Salze der bicyclischen Basen wirksamer als Amyridin. Bezüglich des Vermögens, die Tiere vor Kammerflimmern und vor dem Tod nach Verabreichung von 250 mg/kg Calciumchlorid zu schützen, waren diese Verbindungen ebenfalls am stärksten wirksam. Bei Verwendung des Calciumchlorid-Arrhythmie-Modells waren viele erfindungsgemäßen Verbindungen stärker wirksam als das klassische Antiarrhythmikum Chinidin (s. M.D. Ma s kovskij, Lekarstvennye sredstva, Bd. 1, S. 401, Moskau, Medicina, 1984).

[6] = tested on: isolierten Präparaten des rechten Vorhofs von Kaninchen; assay: Antiarrhythmic effect on isolated right atrium preparations (microelectrodes: AP duration, refractory period R, e/R); conditions: isolated right atrium of rabbit, microelectrodes
Excerpt: as §1

[7] = Side effects and CNS/behaviour: tremor (TD50), sedative and m-cholinomimetic effects; assay type: in vivo; conditions: for Verhältnis TD50 zu ED50: ED50 = dose blocking the effect of Skopolamin in 50 % of the animals (passive avoidance, mice); for TD50 (Tremor): toxic dose causing tremor in 50 % of the animals
Excerpt: Von Interesse ist der Einfluß der erfindungsgemäßen Verbindungen auf das ZNS und das Verhalten der Tiere.

[8] = tested on: Nerven-Muskel-Präparat von Mäusen (n.peroneus-m.extensor digitorum longus); assay: Neuromuscular transmission in isolated nerve-muscle preparation (EPP, minEPP); conditions: for Stimulierung der Nerven-Muskelübertragung, in % der Amplitude: EPP: EPP = Endplattenpotential
Excerpt: Der Einfluß der Stoffe auf die Nerven-Muskei-Übertragung wurde am isolierten Nerven-Muskel-Präparat von Mäusen (n.peroneus-m.extensor digitorum longus) (s. Bhattacharyya B. et al. "Neuromuscular blocking action of two hemicholinium-3 analogs" Europ. J. Pharmac. 146, 155-165 /1988/) untersucht, das von Lilly-Lösung perfundiert wurde, durch die man ein Gemisch von 02 und C02 leitete. […] Das Endplattenpotential (EPP) und das Endplattenminiaturpotential (minEPP) wurden mit Hilfe eines Magnetografen aufgezeichnet und danach mit dem Computer ausgewertet. Ermittelt wurden die Frequenz (f), die Amplitude (A) und die Dauer (t) der minEPP und der EPP (s. Tabelle 2).

[9] = tested on: durch Skopolamin hervorgerufene Amnesie; assay: Dark avoidance assay (passive avoidance), scopolamine-induced amnesia; assay type: in vivo, Mäusen; conditions: mice, compound s.c. 5 min before learning, Skopolamin i.p. 30 min before
Experimental: Die Mäuse wurden dabei in den hellen Abschnitt der Kammer gegeben, wonach die Latenzzeit für den Übertritt in die dunkle Kammer, in der die Tiere einem Stromschlag von 0,5 mA ausgesetzt waren, registriert wurde. Danach erhöhte sich die Latenzzeit für den Übertritt in den dunklen Abschnitt und verringerte sich die Aufenthaltsdauer. 30 Minuten vor dem Versuch wurden den Mäusen i.p. […] Gedächtnisstörungen hervorrufendes Skopolamin als Cholinblocker injiziert. Die erfindungsgemäßen Verbindungen wurden s.c. 5 Minuten vor dem Lernvorgang injiziert. Das Skopolamin verkürzt die Latenzzeit für den Übertritt in die dunkle Kammer, die erfindungsgemäßen Verbindungen stellen jedoch die Latenzzeitwerte wie bei der Kontrollgruppe wieder her oder bedingen ein geringfügiges Überschreiten dieser Werte (siehe Tabelle 2). Gleichzeitig wird die Aufenthaltsdauer der Tiere im dunklen Abschnitt der Kammer auf 36 bis 45 Hundertstel des Ausgangswerts verringert.

[10] = Acute toxicity, single intraperitoneal injection, probit analysis (LD50); assay type: in vivo, Mäusen; conditions: mice, i.p.
Excerpt: Ihre akute Toxizität wurde an Mäusen (einmalige intraperitoneale Injektion) nach der Methode der Probit-Analyse nach Zichtfield, Wilcoxon, t949 untersucht. In Tabelle 2 sind die Parameter der akuten Toxizität (LDso) angegeben, die eine mäßige Toxizität der erfindungsgemäßen Verbindungen belegen.

[11] = tested on: Na -Durchlässigkeit der Membrane des Ranvier-Schnürringes; assay: Na+ permeability of the node of Ranvier membrane, voltage clamp; design: species or system Frosches; conditions: node of Ranvier, frog sciatic nerve fibres, voltage clamp; concentration giving 50 % block of ion permeability; read-out: Blockierung der Na^+-Durchlässigkeit der Membrane Ic50 (Mol)
Excerpt: (§2) Untersucht wurden die Wirkmechanismen der erfindungsgemäßen Verbindungen: • 1. Die Wirkung auf Acetylcholinesterase menschlicher Erythrozyten auf spektrofotometrischem Wege. • 2. Die Wirkung auf die K - und Na -Durchlässigkeit der Membrane des Ranvier-Schnürringes (s. Fox T.M. et al. "Modification of ionic membrane currrents of Ranvier nodes by UV-radiation under voltage clamp conditions", Experientia, 27, 1289-1290 /1971/ und Arhom P. et al. "Local anesthetics: effects on permeability properties of nodal membrane in myelynated nerve fibres from xenopus". Acta physiol. Scand. 91, 11-21 /1974/) der Nervenfasern des Hüftnervs des Frosches unter Anwendung der Methode der Messung der Membranspannung (Voltage-clampmethode) (s. Derksen H.E. "Axon membrane voltage fluctuations", Acta Physiol., Pharmacol Neer, 13, 373-466 /1965/).
(§3) Alle erfindungsgemäßen Verbindungen sind Blocker für die K^+-Durchlässigkeit der Membrane analog dem Amyridin. Die Salze der bicyclischen Basen blockieren jedoch stärker die Na -Durchlässigkeit der Membrane, was sich mit ihren sedativen und analgetischen Eigenschaften in Verbindung bringen läßt.

[12] = tested on: K -Durchlässigkeit der Membrane des Ranvier-Schnürringes; assay: K+ permeability of the node of Ranvier membrane, voltage clamp; design: species or system Frosches; conditions: node of Ranvier, frog sciatic nerve fibres, voltage clamp; concentration giving 50 % block of ion permeability; read-out: Blockierung der K^+-Durchlässigkeit der Membrane Ic50 (Mol)
Excerpt: as §2, §3

Compound	Änderung der Dauer der Seitenlage, in %: Hexenal 60 mg/kg [1]	Änderung der Orientierungsaktivität, in % [2]	Analgetische Wirkung: Abnahme d. Zahl der "Krämpfe" bei Mäusen, in % [3]	Ki [4]	Antiarrhythmische Wirkung: Verlängerung d. Lebensdauer von Ratten an Hand des CaCl2-Arrhythmie-Modells, in % [5]	Antiarrhythmische Wirkung: Verlängerung d. Refraktärzeit (R), in % [6]	Verhältnis TD50 zu ED50 [7]	TD50 (Tremor) [7]	Stimulierung der Nerven-Muskelübertragung, in % der Amplitude: EPP [8]	Stimulierung der Nerven-Muskelübertragung, in % der Amplitude: minEPP [8]	Einfluß auf das Gedächtnis: Zahl der Tiere in %, bei denen die Skopolaminwirkung aufgehoben wurde [9]	LD50 [10]	IC50 [11]	IC50 [12]
Cc1nc2c(c(N)c1C)CCC2 [Verbindung 14]	+15%	-7%	50%	0.35 µM	90%	100%	8,2	9 mg/kg	30%	62%	70%	17 mg/kg		
Cc1nc2c(c(N)c1C)CCC2 [Verbindung 15]	+30%	-15%	65%	0.65 µM	110%	90%	6,8	7 mg/kg	40%	75%	72%	16 mg/kg		
Cc1nc2c(c(N)c1C)CCC2 [Verbindung 16]	+22%	-10%	50%	0.58 µM	70%	80%	6,6	10 mg/kg	42%	78%	75%	21 mg/kg		
CCc1nc2c(c(N)c1C)CCC2 [Verbindung 28]				6.1 µM			11	20 mg/kg	22%	48%	80%	40 mg/kg	150 µM	120 µM
